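Protocol summary: plate cells (96-well), add compound at 5 concentrations, incubate 48 h, interpolate endpoints linearly. GI50: concentration for 50% inhibition of growth. TGI marks complete inhibition of growth.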
Key:
Assay in all cases: NCI tumour cell line growth inhibition, 48 h
DMS 273 small cell lung = tested on: DMS 273 small cell lung
HCC-2998 colon = tested on: HCC-2998 colon
HCT-15 colon = tested on: HCT-15 colon
NCI-H226 lung = tested on: NCI-H226 lung
OVCAR-3 ovarian = tested on: OVCAR-3 ovarian
SK-MEL-28 melanoma = tested on: SK-MEL-28 melanoma
SK-OV-3 ovarian = tested on: SK-OV-3 ovarian
SW-620 colon = tested on: SW-620 colon
NCI-H460 lung = tested on: NCI-H460 lung
HOP-92 NSCLC = tested on: HOP-92 NSCLC

## Cc1cc(N(CCC#N)CCC#N)ccc1N=Nc1cccc(C(=O)O)c1
DMS 273 small cell lung
  TGI: > 100 µM
HCC-2998 colon
  TGI: > 100 µM
HCT-15 colon
  TGI: > 100 µM
NCI-H226 lung
  TGI: > 100 µM
OVCAR-3 ovarian
  TGI: > 100 µM
SK-MEL-28 melanoma
  TGI: > 100 µM
SK-OV-3 ovarian
  TGI: > 100 µM
SW-620 colon
  TGI: > 100 µM

## NC1C[C@H](n2cc(/C=C/Br)c(=O)[nH]c2=O)C[C@@H]1CO (some centres undefined)
DMS 273 small cell lung
  TGI: > 100 µM
HCC-2998 colon
  TGI: > 100 µM
HCT-15 colon
  TGI: > 100 µM
NCI-H226 lung
  TGI: > 100 µM
NCI-H460 lung
  TGI: > 100 µM
OVCAR-3 ovarian
  TGI: > 100 µM
SK-MEL-28 melanoma
  TGI: > 100 µM
SK-OV-3 ovarian
  TGI: > 100 µM

## Cc1ccc(N=Cc2ccc3c(c2)OCO3)cc1C
DMS 273 small cell lung
  TGI: > 100 µM
HCT-15 colon
  TGI: > 100 µM
HOP-92 NSCLC
  TGI: > 100 µM
NCI-H226 lung
  TGI: > 100 µM
NCI-H460 lung
  TGI: > 100 µM
OVCAR-3 ovarian
  TGI: > 100 µM
SK-MEL-28 melanoma
  TGI: > 100 µM
SK-OV-3 ovarian
  TGI: > 100 µM
SW-620 colon
  TGI: > 100 µM

## COC(=O)C(=O)C1(CCC(C)=O)c2ccccc2-c2c(C)ccc(C)c21 (centres undefined)
DMS 273 small cell lung
  TGI: > 100 µM
HCC-2998 colon
  TGI: > 100 µM
HCT-15 colon
  TGI: > 100 µM
NCI-H226 lung
  TGI: > 100 µM
NCI-H460 lung
  TGI: > 100 µM
OVCAR-3 ovarian
  TGI: > 100 µM
SK-MEL-28 melanoma
  TGI: > 100 µM
SK-OV-3 ovarian
  TGI: > 100 µM
SW-620 colon
  TGI: > 100 µM

## CC1(C)CC(=O)c2c(C(F)(F)F)nn(-c3ccc(C(N)=O)c(NC4CCC(OC(=O)CN)CC4)c3)c2C1 (centres undefined)
HCC-2998 colon
  GI50: 0.195 µM
  TGI: 13.2 µM
HCT-15 colon
  GI50: 0.12 µM
  TGI: > 93.6 µM
HOP-92 NSCLC
  GI50: 0.124 µM
  TGI: 1.04 µM
NCI-H226 lung
  GI50: 0.103 µM
  TGI: > 56.4 µM
NCI-H460 lung
  GI50: 0.0502 µM
  TGI: > 100 µM
OVCAR-3 ovarian
  GI50: 0.159 µM
  TGI: > 100 µM
SK-MEL-28 melanoma
  GI50: 0.0522 µM
  TGI: 20.6 µM
SK-OV-3 ovarian
  GI50: 0.0238 µM
  TGI: > 100 µM
SW-620 colon
  GI50: 0.038 µM
  TGI: > 100 µM

## CC#C[C@]1(O)CC[C@H]2[C@@H]3CCC4=CC(=O)CCC4=C3[C@@H](c3ccc4c(c3)OCO4)C[C@@]21C
HCC-2998 colon
  GI50: 174 µM
  TGI: 572 µM
HCT-15 colon
  GI50: 45.4 µM
  TGI: 780 µM
HOP-92 NSCLC
  GI50: 17.7 µM
  TGI: 131 µM
NCI-H226 lung
  GI50: 140 µM
  TGI: 617 µM
NCI-H460 lung
  GI50: 108 µM
  TGI: 305 µM
OVCAR-3 ovarian
  GI50: 110 µM
  TGI: 320 µM
SK-MEL-28 melanoma
  GI50: 85.8 µM
  TGI: 276 µM
SK-OV-3 ovarian
  GI50: 186 µM
  TGI: 777 µM
SW-620 colon
  GI50: 62.3 µM
  TGI: > 1000 µM

## CCOc1ccc(NC(=O)C(=O)CC(=O)C2=C(C)Nc3ccccc3S2)cc1
HCC-2998 colon
  TGI: > 50 µM
HCT-15 colon
  TGI: > 50 µM
HOP-92 NSCLC
  TGI: > 50 µM
NCI-H226 lung
  TGI: > 50 µM
NCI-H460 lung
  TGI: > 50 µM
OVCAR-3 ovarian
  TGI: > 50 µM
SK-MEL-28 melanoma
  TGI: > 50 µM
SK-OV-3 ovarian
  TGI: > 50 µM
SW-620 colon
  TGI: > 50 µM

## CN(C)CCNc1c2c(c(NCCN(C)C)c3[nH]ccc13)C(=O)c1ccccc1C2=O
HCC-2998 colon
  GI50: 0.393 µM
  TGI: 3.28 µM
HCT-15 colon
  GI50: 0.168 µM
  TGI: 3.55 µM
HOP-92 NSCLC
  GI50: 6.08 µM
  TGI: 28.5 µM
NCI-H226 lung
  GI50: 5.03 µM
  TGI: 15.8 µM
NCI-H460 lung
  GI50: 0.462 µM
  TGI: 2.87 µM
OVCAR-3 ovarian
  GI50: 0.639 µM
  TGI: 6.59 µM
SK-MEL-28 melanoma
  GI50: 3.1 µM
  TGI: 9.5 µM
SK-OV-3 ovarian
  GI50: 5.57 µM
  TGI: 17.7 µM
SW-620 colon
  GI50: 0.385 µM
  TGI: 2.97 µM

## CC1OC(O[C@@H]2OC=C(C=O)[C@@]3(O)CC[C@H](C)[C@@H]23)C(O)C(O)C1O (some centres undefined)
HCC-2998 colon
  TGI: > 100 µM
HCT-15 colon
  TGI: > 100 µM
HOP-92 NSCLC
  TGI: > 100 µM
NCI-H226 lung
  TGI: > 100 µM
NCI-H460 lung
  TGI: > 100 µM
OVCAR-3 ovarian
  TGI: > 100 µM
SK-MEL-28 melanoma
  TGI: > 100 µM
SK-OV-3 ovarian
  TGI: > 100 µM
SW-620 colon
  TGI: > 100 µM

## CC1(C)C(=NNC(=O)C[N+](C)(C)C)C(C)(C)C1=NNC(=O)C[N+](C)(C)C
DMS 273 small cell lung
  TGI: > 100 µM
HCC-2998 colon
  TGI: > 100 µM
HCT-15 colon
  TGI: > 100 µM
HOP-92 NSCLC
  TGI: > 100 µM
NCI-H226 lung
  TGI: > 100 µM
NCI-H460 lung
  TGI: > 100 µM
OVCAR-3 ovarian
  TGI: > 100 µM
SK-MEL-28 melanoma
  TGI: > 100 µM
SK-OV-3 ovarian
  TGI: > 100 µM

## N#Cc1c(N2CCCC2)[nH]c(=O)c(C(c2c(Cl)cccc2Cl)c2c(O)c(C#N)c(N3CCCC3)[nH]c2=O)c1O
HCC-2998 colon
  GI50: 12.1 µM
  TGI: 25.7 µM
HCT-15 colon
  GI50: 7.7 µM
  TGI: 26.9 µM
HOP-92 NSCLC
  GI50: 10.2 µM
  TGI: 28.5 µM
NCI-H226 lung
  GI50: 10.9 µM
  TGI: 24.4 µM
NCI-H460 lung
  GI50: 18.2 µM
  TGI: 38.4 µM
OVCAR-3 ovarian
  GI50: 3.33 µM
  TGI: 14.3 µM
SK-MEL-28 melanoma
  GI50: 5.34 µM
  TGI: 40.6 µM
SK-OV-3 ovarian
  GI50: 0.0847 µM
  TGI: 21 µM
SW-620 colon
  GI50: 3.91 µM
  TGI: 18.4 µM

## COc1cc(/C=C/c2cc(O)c3cc(C(C)=O)c(=O)oc3c2)cc2c1O[C@]1(C)CC[C@@H](O)C(C)(C)[C@H]1C2
HCC-2998 colon
  GI50: > 28.2 µM
  TGI: > 48.7 µM
HCT-15 colon
  TGI: > 31.8 µM
HOP-92 NSCLC
  TGI: > 28.5 µM
NCI-H226 lung
  GI50: > 23.7 µM
  TGI: > 64.9 µM
NCI-H460 lung
  TGI: > 53.2 µM
OVCAR-3 ovarian
  GI50: > 33.1 µM
  TGI: > 89.1 µM
SK-MEL-28 melanoma
  TGI: > 21.4 µM
SK-OV-3 ovarian
  GI50: > 20.6 µM
  TGI: > 64 µM
SW-620 colon
  TGI: > 34.7 µM

## COc1ccc(OC)c(NC(=O)C2=C(C)NC(C)=C(C(=O)Nc3cc(OC)ccc3OC)C2c2ccccc2)c1
DMS 273 small cell lung
  TGI: > 100 µM
HCC-2998 colon
  TGI: > 100 µM
HCT-15 colon
  TGI: > 100 µM
HOP-92 NSCLC
  TGI: > 100 µM
NCI-H460 lung
  TGI: > 100 µM
OVCAR-3 ovarian
  TGI: > 100 µM
SK-MEL-28 melanoma
  TGI: > 100 µM
SK-OV-3 ovarian
  TGI: > 100 µM
SW-620 colon
  TGI: > 100 µM

## O=C1c2cccnc2C(=O)c2nc3cc(N4CCN(C5CC5)CC4)ccc3nc21
HCC-2998 colon
  GI50: 0.49 µM
  TGI: 1.83 µM
HCT-15 colon
  GI50: 0.257 µM
  TGI: 1.28 µM
HOP-92 NSCLC
  GI50: 2.93 µM
  TGI: 9.95 µM
NCI-H226 lung
  GI50: 1.46 µM
  TGI: 4.08 µM
NCI-H460 lung
  GI50: 0.137 µM
  TGI: 0.352 µM
OVCAR-3 ovarian
  GI50: 1.24 µM
  TGI: 3.67 µM
SK-MEL-28 melanoma
  GI50: 0.567 µM
  TGI: 1.98 µM
SK-OV-3 ovarian
  GI50: 0.648 µM
  TGI: 2.89 µM
SW-620 colon
  GI50: 0.409 µM
  TGI: 1.94 µM

## COc1ccc2c(c1)/C(=C\c1c(C)nc3sccn13)C(=O)N2
HCC-2998 colon
  GI50: 0.0392 µM
  TGI: 8.21 µM
HCT-15 colon
  GI50: < 0.0468 µM
  TGI: > 27.1 µM
HOP-92 NSCLC
  GI50: 0.83 µM
  TGI: > 100 µM
NCI-H226 lung
  GI50: 6.55 µM
  TGI: 74.4 µM
NCI-H460 lung
  TGI: > 100 µM
OVCAR-3 ovarian
  GI50: < 0.01 µM
SK-MEL-28 melanoma
  GI50: 66.3 µM
  TGI: > 100 µM
SK-OV-3 ovarian
  TGI: > 38.3 µM
SW-620 colon
  GI50: < 0.0476 µM
  TGI: > 100 µM

## COc1ccc(-c2c3c(N)nc(-c4ccncc4)nc3nc3c2c(C)nn3-c2ccccc2)cc1
HCC-2998 colon
  GI50: > 100 µM
  TGI: > 100 µM
HCT-15 colon
  GI50: > 100 µM
  TGI: > 100 µM
HOP-92 NSCLC
  GI50: 36.2 µM
  TGI: > 100 µM
NCI-H226 lung
  GI50: > 100 µM
  TGI: > 100 µM
NCI-H460 lung
  GI50: 3.3 µM
  TGI: > 100 µM
OVCAR-3 ovarian
  GI50: 3.89 µM
  TGI: 16 µM
SK-MEL-28 melanoma
  GI50: 4.25 µM
  TGI: 40.5 µM
SK-OV-3 ovarian
  GI50: 5.25 µM
  TGI: 54 µM
SW-620 colon
  GI50: 4.36 µM
  TGI: > 100 µM

## COc1cc2c(c(OC)c1)C1c3ccccc3NC(=O)N1CC2 (centres undefined)
HCC-2998 colon
  GI50: 3.31 µM
  TGI: > 100 µM
HCT-15 colon
  GI50: 3.14 µM
  TGI: > 100 µM
HOP-92 NSCLC
  GI50: 7.25 µM
  TGI: > 100 µM
NCI-H226 lung
  GI50: 7.24 µM
  TGI: > 100 µM
NCI-H460 lung
  GI50: 3.7 µM
  TGI: > 100 µM
OVCAR-3 ovarian
  GI50: 3.27 µM
  TGI: > 100 µM
SK-MEL-28 melanoma
  GI50: 9.41 µM
  TGI: 28.5 µM
SK-OV-3 ovarian
  GI50: 3.67 µM
  TGI: > 100 µM
SW-620 colon
  GI50: 4.68 µM
  TGI: > 100 µM

From PubChem BioAssay (NCI)
